Values quoted from earlier work in US20100113581A1, “COMBINATION THERAPIES FOR THE TREATMENT OF OBESITY” (priority 2008, published 2010).

Legend:
[1] = published studies of weight loss medications
[2] = cyclodextrin derivatives

| Compound | weight loss of body weight for drug compared with placebo [1] | solubility in water [2] |
| --- | --- | --- |
| CCCCCCCCCCC[C@@H](C[C@@H]1OC(=O)[C@H]1CCCCCC)OC(=O)[C@H](CC(C)C)NC=O [orlistat] | about 5% |  |
| CCN[C@@H](C)Cc1cccc(C(F)(F)F)c1 [dexfenfluramine] | about 5% |  |
| CC(C)CC(N(C)C)C1(c2ccc(Cl)cc2)CCC1 (centres unmarked) [sibutramine] | about 5% |  |
| G-2-beta-cyclodextrin |  | 147 % (w/v) |
| triacetyl-beta-cyclodextrin |  | insoluble |
